# In EP3046573B1, “AMYLIN ANALOGUES” (Zealand Pharma A/S, priority 2013, dated 2015):
# Like-named read-outs stand apart in the source and are kept apart here. Numbered stars: 1 amine (or outer) side, 2 acyl side, 3 side chain; on linkers, the order of the positions; unused ones are H or OH. Bridge positions count the residues as written; N and C are the ends. Square brackets hold non-standard residues; d marks the D form. Peptide text beside a SMILES is read from it. * marks the point of attachment. C20 diacid = O=C(O)CCCCCCCCCCCCCCCCCCC(=O)*; γGlu = O=C(O)[C@H](CCC(=O)[*:2])N[*:1]; NMeI = CC[C@H](C)[C@H](NC)C(=O)O; Sar = CNCC(=O)O
# How the values were obtained:
# [1] = molecular target: T1, human calcitonin receptor (hCTR2) (Homo sapiens, UniProt P30988); assay: hCTR2 assay: induction of cAMP (AlphaScreen cAMP Assay kit) in COS7 cells expressing hCTR2; format: cell-based
# T1 construct: expressed in transfected cells
# T1 sequence (P30988 25-474): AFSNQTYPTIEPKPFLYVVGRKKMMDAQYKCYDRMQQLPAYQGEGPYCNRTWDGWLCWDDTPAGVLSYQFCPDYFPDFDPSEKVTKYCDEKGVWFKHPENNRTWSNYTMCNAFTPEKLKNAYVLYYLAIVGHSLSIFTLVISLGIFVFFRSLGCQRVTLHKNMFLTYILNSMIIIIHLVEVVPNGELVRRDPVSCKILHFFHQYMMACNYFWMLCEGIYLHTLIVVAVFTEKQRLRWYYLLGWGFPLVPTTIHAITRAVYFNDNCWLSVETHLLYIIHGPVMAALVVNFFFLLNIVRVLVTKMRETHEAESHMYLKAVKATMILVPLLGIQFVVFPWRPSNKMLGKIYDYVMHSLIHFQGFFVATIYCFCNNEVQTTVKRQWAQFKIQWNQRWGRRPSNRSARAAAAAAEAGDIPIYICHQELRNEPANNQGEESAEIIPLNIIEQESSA
# Summary of the method: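 Functional agonism is measured as cAMP accumulation in a COS7 line stably transfected with hCTR2, lacking endogenous RAMPs. Peptides act for 15 min at 37° C with IBMX present, and curves are fitted with a 4-parameter logistic model.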
# [2] = Solubility assessment (turbidity absorbance at 325 nm); format: physicochemical; settings: stock 2 mg/ml diluted 1:1, ambient temperature (typically 25°C), n=1; for Solubility, Acetate buffer pH 4: 100 mM acetate buffer pH 4.0; for Solubility, Acetate buffer pH 5: 100 mM acetate buffer pH 5.0; for Solubility, Histidine buffer pH 6: 100 mM histidine buffer pH 6.0; for Solubility, Histidine buffer pH 7: 100 mM histidine buffer pH 7.0; for Solubility, Phosphate buffer pH 6: 100 mM phosphate buffer pH 6.0; for Solubility, Phosphate buffer pH 7: 100 mM phosphate buffer pH 7.0; for Solubility, Phosphate buffer pH 7.5: 100 mM phosphate buffer pH7.5
# Summary of the method: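 Peptide stock (2 mg/ml, water pH 2.5) diluted 1:1 into 100 mM acetate (pH 4.0, 5.0), histidine (pH 6.0, 7.0) or phosphate (pH 6.0–7.5) buffer; absorbance at 325 nm read at about 25°C, n=1. A325 ≤ 0.02 taken as solubility ≥ 1 mg/ml.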
# [3] = molecular target: T2, human amylin receptor 3 (hAMYR3) consisting of hCTR2 co-expressed with human Receptor Activity Modifying Protein 3 (hRAMP3) (Homo sapiens, UniProt O60896+P30988); assay: hAMYR3 assay: induction of cAMP (AlphaScreen cAMP Assay kit) in COS7 cells expressing hAMYR3; format: cell-based; settings: cAMP induction in COS7 cells expressing hAMYR3; average of a minimum of 3 determinations; read-out: hAMY R3 EC50
# T2 construct: expressed in transfected cells
# T2 sequence (P30988 25-474): T1 sequence (P30988 25-474)
# T2 sequence (O60896 24-148 partner): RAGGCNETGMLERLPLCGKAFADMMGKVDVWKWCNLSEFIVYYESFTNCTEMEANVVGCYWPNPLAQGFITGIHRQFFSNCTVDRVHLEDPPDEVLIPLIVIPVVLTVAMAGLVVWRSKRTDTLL
# Summary of the method: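 Stable COS7 clone co-expressing hCTR2 and hRAMP3, stimulated 15 min at 37° C with increasing peptide in Tyrode buffer pH 7.4 with 100 µM IBMX and 0.1% casein. cAMP measured by AlphaScreen after lysis; EC50 and % efficacy versus pramlintide from 4PL fit.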
"EC50 ([1]; cAMP induction in COS7 cells expressing hCTR2, average of a minimum of 3 determinations, read-out: hCTR2 EC50)",SMILES,"Solubility, Acetate buffer pH 4 [2]","Solubility, Acetate buffer pH 5 [2]","Solubility, Histidine buffer pH 6 [2]","Solubility, Histidine buffer pH 7 [2]","Solubility, Phosphate buffer pH 6 [2]","Solubility, Phosphate buffer pH 7 [2]","Solubility, Phosphate buffer pH 7.5 [2]",EC50 [3],EC50 [1]
0.14 nM,"CC[C@H](C)[C@@H](C(=O)N[C@@H](CC(C)C)C(=O)N[C@@H](CO)C(=O)N[C@@H](CO)C(=O)N[C@H](C(=O)N[C@@H](CCC(=O)O)C(=O)N[C@H](C(=O)NCC(=O)N[C@@H](CO)C(=O)N[C@@H](CCC(=O)O)C(=O)N[C@H](C(=O)N1CCC[C@H]1C(N)=O)[C@@H](C)O)C(C)C)[C@@H](C)O)N(C)C(=O)[C@H](C)NC(=O)CN(C)C(=O)[C@H](Cc1ccccc1)NC(=O)[C@H](CO)NC(=O)[C@H](CO)NC(=O)[C@H](CO)NC(=O)[C@H](CO)NC(=O)[C@H](CCCNC(=N)N)NC(=O)[C@H](Cc1c[nH]cn1)NC(=O)[C@H](CC(C)C)NC(=O)[C@H](Cc1ccccc1)NC(=O)[C@H](CCC(=O)O)NC(=O)[C@H](C)NC(=O)[C@H](CC(C)C)NC(=O)[C@H](CCCNC(=N)N)NC(=O)[C@H](CO)NC(=O)[C@@H](NC(=O)[C@H](C)NC(=O)[C@@H]1CSSC[C@H](NC(=O)[C@H](CCCNC(=N)N)NC(=O)CC[C@H](NC(=O)CCCCCCCCCCCCCCCCCCC(=O)O)C(=O)O)C(=O)N[C@@H](CC(N)=O)C(=O)N[C@@H]([C@@H](C)O)C(=O)N[C@@H](C)C(=O)N[C@@H]([C@@H](C)O)C(=O)N1)[C@@H](C)O [Compound 124, [19CD]-isoGlu-RC()NTATC()ATSRLAEFLHRSSSSF-Gly(Me)-A-Ile(Me)-LSSTEVGSETP-NH2] ({C20 diacid-γGlu}-RCNTATCATSRLAEFLHRSSSSF[Sar]A[NMeI]LSSTEVGSETP-NH2; disulfide 2-7)",SS (SS indicates solubility ≥ 1mg/ml),SS (SS indicates solubility ≥ 1mg/ml),SS (SS indicates solubility ≥ 1mg/ml),SS (SS indicates solubility ≥ 1mg/ml),SS (SS indicates solubility ≥ 1mg/ml),SS (SS indicates solubility ≥ 1mg/ml),SS (SS indicates solubility ≥ 1mg/ml),0.17 nM,
,"CC[C@H](C)[C@@H](C(=O)N[C@@H](CC(C)C)C(=O)N[C@@H](CO)C(=O)N[C@@H](CO)C(=O)N[C@H](C(=O)N[C@@H](CCC(=O)O)C(=O)N[C@H](C(=O)NCC(=O)N[C@@H](CO)C(=O)N[C@@H](CCC(=O)O)C(=O)N[C@H](C(=O)N1CCC[C@H]1C(N)=O)[C@@H](C)O)C(C)C)[C@@H](C)O)N(C)C(=O)[C@H](C)NC(=O)CN(C)C(=O)[C@H](Cc1ccccc1)NC(=O)[C@H](CO)NC(=O)[C@H](CO)NC(=O)[C@H](CO)NC(=O)[C@H](CO)NC(=O)[C@H](CCCNC(=N)N)NC(=O)[C@H](Cc1c[nH]cn1)NC(=O)[C@H](CC(C)C)NC(=O)[C@H](Cc1ccccc1)NC(=O)[C@H](CCC(=O)O)NC(=O)[C@H](C)NC(=O)[C@H](CC(C)C)NC(=O)[C@H](CCCNC(=N)N)NC(=O)[C@H](CCC(N)=O)NC(=O)[C@@H](NC(=O)[C@H](C)NC(=O)[C@@H]1CSSC[C@H](NC(=O)[C@H](CCCNC(=N)N)NC(=O)CC[C@H](NC(=O)CCCCCCCCCCCCCCCCCCC(=O)O)C(=O)O)C(=O)N[C@@H](CO)C(=O)N[C@@H]([C@@H](C)O)C(=O)N[C@@H](C)C(=O)N[C@@H]([C@@H](C)O)C(=O)N1)[C@@H](C)O [Compound 126, [19CD]-isoGlu-RC()STATC()ATQRLAEFLHRSSSSF-Gly(Me)-A-Ile(Me)-LSSTEVGSETP-NH2] ({C20 diacid-γGlu}-RCSTATCATQRLAEFLHRSSSSF[Sar]A[NMeI]LSSTEVGSETP-NH2; disulfide 2-7)",SS (SS indicates solubility ≥ 1mg/ml),SS (SS indicates solubility ≥ 1mg/ml),SS (SS indicates solubility ≥ 1mg/ml),SS (SS indicates solubility ≥ 1mg/ml),SS (SS indicates solubility ≥ 1mg/ml),SS (SS indicates solubility ≥ 1mg/ml),SS (SS indicates solubility ≥ 1mg/ml),0.28 nM,0.21 nM
